According to US20170260178A1 (SPERO GYRASE, INC., priority 2012, published 2017):
Values after ≈ are worked out from the molar mass of the structure shown.

Tests used:
S. pyogenes (ATCC 51339) = assay: Bacterial assay: MIC against S. pyogenes; type: cell-based, Streptococcus pyogenes; conditions: Streptococcus pyogenes, ATCC51339, read-out: minimal inhibitory concentration (MIC)
S. aureus (ATCC 29213) = assay: Bacterial assay: MIC against S. aureus; type: cell-based, Staphylococcus aureus; conditions: Staphylococcus aureus, ATCC29213, read-out: minimal inhibitory concentration (MIC)

**Q.** With `CCNC(=O)Nc1nc2cc(-c3cnc(C(C)(C)O)nc3)cc(-c3cc(C(C)N4CCOCC4)ccn3)c2s1` (stereo not drawn) [Compound 33, 1-ethyl-3-[5-[2-(1-hydroxy-1-methyl-ethyl)pyrimidin-5-yl]-7-[4-(1-morpholinoethyl)-2-pyridyl]-1,3-benzothiazol-2-yl]urea] as the compound, how does the MIC (S. pyogenes (ATCC 51339)) read?
**A.** Its MIC is at most 1 µg/mL.

**Q.** And the MIC (S. aureus (ATCC 29213))?
**A.** The MIC was at most 1 µg/mL.

**Q.** For `CCNC(=O)Nc1nc2cc(-c3cnc(C(C)(C)O)nc3)cc(-c3cc(CN4CCC(F)(F)C4)ccn3)c2s1` [Compound 34, 1-[7-[4-[(3,3-difluoropyrrolidin-1-yl)methyl]-2-pyridyl]-5-[2-(1-hydroxy-1-methyl-ethyl)pyrimidin-5-yl]-1,3-benzothiazol-2-yl]-3-ethyl-urea], which MIC (S. pyogenes (ATCC 51339)) is on record?
**A.** The MIC was at most 1 µg/mL.

**Q.** And the MIC (S. aureus (ATCC 29213))?
**A.** The MIC was at most 1 µg/mL.

**Q.** What does the source list for `CCNC(=O)Nc1nc2cc(-c3cnc(C(C)(C)O)nc3)cc(-c3cc(CN4CCCC(F)(F)C4)ccn3)c2s1` [Compound 37, 1-[7-[4-[(3,3-difluoro-1-piperidyl)methyl]-2-pyridyl]-5-[2-(1-hydroxy-1-methyl-ethyl)pyrimidin-5-yl]-1,3-benzothiazol-2-yl]-3-ethyl-urea]?
**A.** MIC (S. pyogenes (ATCC 51339)): ≤ 1 µg/mL; MIC (S. aureus (ATCC 29213)): ≤ 1 µg/mL

**Q.** What does the source list for `CCNC(=O)Nc1nc2cc(-c3ccc(C(C)(C)O)nc3)c(O)c(CN(C)C)c2s1` [Compound 41]?
**A.** MIC (S. pyogenes (ATCC 51339)): 16 µg/mL (≈ 37.2 µM); MIC (S. aureus (ATCC 29213)): 16 µg/mL (≈ 37.2 µM)

**Q.** For `CCNC(=O)Nc1nc2cc(-c3cnc(C(C)(C)O)nc3)cc(-c3cc(CN4CC[C@@H](OC)C4)ccn3)c2s1` [Compound 42, 1-ethyl-3-[5-[2-(1-hydroxy-1-methyl-ethyl)pyrimidin-5-yl]-7-[4-[[(3R)-3-methoxypyrrolidin-1-yl]methyl]-2-pyridyl]-1,3-benzothiazol-2-yl]urea], which MIC (S. pyogenes (ATCC 51339)) is on record?
**A.** The MIC was at most 1 µg/mL.

**Q.** And the MIC (S. aureus (ATCC 29213))?
**A.** Its MIC is at most 1 µg/mL.

**Q.** What does the source list for `CCNC(=O)Nc1nc2cc(-c3ccc(C(C)(C)O)nc3)c(O)c(CN3CCOCC3)c2s1` [Compound 44, 1-ethyl-3-[6-hydroxy-5-[6-(1-hydroxy-1-methyl-ethyl)-3-pyridyl]-7-(morpholinomethyl)-1,3-benzothiazol-2-yl]urea]?
**A.** MIC (S. pyogenes (ATCC 51339)): 16 µg/mL (≈ 33.9 µM); MIC (S. aureus (ATCC 29213)): 16 µg/mL (≈ 33.9 µM)

**Q.** With `CCNC(=O)Nc1nc2cc(-c3cnc(C(C)(C)O)nc3)cc(-c3ccc(N4CCC(C)(C(=O)O)CC4)cn3)c2s1` [Compound 45, 1-[6-[2-(ethylcarbamoylamino)-5-[2-(1-hydroxy-1-methyl-ethyl)pyrimidin-5-yl]-1,3-benzothiazol-7-yl]-3-pyridyl]-4-methyl-piperidine-4-carboxylic acid] as the compound, how does the MIC (S. pyogenes (ATCC 51339)) read?
**A.** Its MIC is at most 1 µg/mL.

**Q.** What about the MIC (S. aureus (ATCC 29213)) of the same compound?
**A.** Its MIC is 2 µg/mL (≈ 3.47 µM).

**Q.** Which results are given for `CCNC(=O)Nc1nc2cc(-c3cnc(C(C)(C)O)nc3)cc(-c3ccc(CC(=O)O)cn3)c2s1` [Compound 46, 2-[6-[2-(ethylcarbamoylamino)-5-[2-(1-hydroxy-1-methyl-ethyl)pyrimidin-5-yl]-1,3-benzothiazol-7-yl]-3-pyridyl]acetic acid]?
**A.** MIC (S. pyogenes (ATCC 51339)): 4 µg/mL (≈ 8.12 µM); MIC (S. aureus (ATCC 29213)): 4 µg/mL (≈ 8.12 µM)

**Q.** How did the MIC (S. pyogenes (ATCC 51339)) turn out when `CCNC(=O)Nc1nc2cc(-c3cnc(C4(O)CCCCC4)nc3)cc(-c3ccccn3)c2s1` [Compound 47, 1-ethyl-3-[5-[2-(1-hydroxycyclohexyl)pyrimidin-5-yl]-7-(2-pyridyl)-1,3-benzothiazol-2-yl]urea] was run?
**A.** The MIC was 8 µg/mL (≈ 16.9 µM).

**Q.** What about the MIC (S. aureus (ATCC 29213)) of the same compound?
**A.** The MIC was 8 µg/mL (≈ 16.9 µM).

**Q.** With `CCNC(=O)Nc1nc2cc(-c3cnc(C(C)(C)O)s3)cc(-c3ccccn3)c2s1` [Compound 48, 1-ethyl-3-[5-[2-(1-hydroxy-1-methyl-ethyl)thiazol-5-yl]-7-(2-pyridyl)-1,3-benzothiazol-2-yl]urea] as the compound, how does the MIC (S. pyogenes (ATCC 51339)) read?
**A.** The MIC was at most 1 µg/mL.

**Q.** And the MIC (S. aureus (ATCC 29213))?
**A.** The MIC was at most 1 µg/mL.

**Q.** For `CCNC(=O)Nc1nc2cc(-c3cnc(C(C)(C)O)cn3)cc(-c3ccccn3)c2s1` [Compound 49, 1-ethyl-3-[5-[5-(1-hydroxy-1-methyl-ethyl)pyrazin-2-yl]-7-(2-pyridyl)-1,3-benzothiazol-2-yl]urea], which MIC (S. pyogenes (ATCC 51339)) is on record?
**A.** Its MIC is at most 1 µg/mL.

**Q.** And the MIC (S. aureus (ATCC 29213))?
**A.** The MIC was at most 1 µg/mL.

**Q.** What does the source list for `CCNC(=O)Nc1nc2cc(-c3cnc(C(C)(C)O)nc3)cc(-c3cc(N4CCC(C)(C(=O)O)CC4)ccn3)c2s1` [Compound 50, 1-[2-[2-(ethylcarbamoylamino)-5-[2-(1-hydroxy-1-methyl-ethyl)pyrimidin-5-yl]-1,3-benzothiazol-7-yl]-4-pyridyl]-4-methyl-piperidine-4-carboxylic acid]?
**A.** MIC (S. pyogenes (ATCC 51339)): ≤ 1 µg/mL; MIC (S. aureus (ATCC 29213)): ≤ 1 µg/mL
